Measurements as given in article PMC3009975, “Blocking spinal CCR2 with AZ889 reversed hyperalgesia in a model of neuropathic pain” (Molecular Pain, 2010).
“Also recorded” adds a separate entry of the source. Like-named read-outs stand apart in the source and are kept apart here.

Key:
rat CCR2 receptor = target: T1, rat CCR2 receptor (Rattus norvegicus, UniProt O55193); test: Calcium flux assay (FLIPR) in HEK293 s cells (Gαqi5) stably expressing rat CCR2; format: cell-based; conditions: read-out: EC50, calcium activation of HEK293 s cells expressing CCR2
T1 construct: expressed in transfected cells; host or cells: HEK293s cells co-expressing chimeric Gαqi5
T1 sequence (O55193 1-373): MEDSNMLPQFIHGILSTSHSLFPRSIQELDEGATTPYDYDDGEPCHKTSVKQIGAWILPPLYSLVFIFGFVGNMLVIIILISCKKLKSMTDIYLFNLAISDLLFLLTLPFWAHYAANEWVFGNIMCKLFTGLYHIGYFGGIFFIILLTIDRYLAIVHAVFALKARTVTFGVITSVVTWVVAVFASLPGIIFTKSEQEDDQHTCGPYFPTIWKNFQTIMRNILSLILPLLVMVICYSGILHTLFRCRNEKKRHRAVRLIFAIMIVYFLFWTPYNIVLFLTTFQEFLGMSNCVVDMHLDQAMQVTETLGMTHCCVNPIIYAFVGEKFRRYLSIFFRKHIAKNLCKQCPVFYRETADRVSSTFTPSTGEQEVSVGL
Excerpt: Chemokine receptors are known to modulate intracellular calcium concentration. A library of designed molecules was screened on HEK cells expressing the receptor using a calcium flux-assay (FLIPR). Compounds capable of blocking the intracellular calcium rise evoked by mouse CCL2 in HEK293 s cells (Gαqi5) stably expressing the rat CCR2 receptor were selected and further profiled by performing dose-response curves. Mouse and rat CCL2 (mCCL2 and rCCL2) purchased from R&D Systems gave similar median effective concentrations (EC50) values (Additional file 1 Figure S1) and mCCL2 was selected to conduct the screening assay. Cells were pre-incubated (30 min) with a given concentration of compound (from 0.04 to 1 μM) and CCR2 calcium-mediated activation was evoked by the addition of mCCL2 (EC50 concentration, 1 nM).
Briefly, HEK293 s cells stably expressing rat CCR2 and the chimeric Gαqi5 were plated (15000 cells per well) in 384-well assay plates in Dulbecco's modified Eagle's medium (DMEM) for 24 h in a humidified atmosphere at 37°C in 5% CO2. After removing the medium by inversion, cells were loaded with the calcium-sensitive dye Fluo4-AM (Molecular Devices), 15 μL per well of 4 μM FLUO-4/Pluronic acid mix (1 mM) in buffer and incubated at 37°C for 1 h in a humidified chamber (5% CO2/95% air). Cells were washed 4 times in Hanks' balanced salt solution buffer supplemented with 20 mM HEPES + 0.25% bovine serum albumin at pH 7.4. Different concentrations of the test compound (from 10 mM stock in dimethyl sulfoxide) were added in buffer for 30 min at 37°C in 5% CO2. In this assay, mouse CCL2 was added at 1 nM in buffer (EC50 value in Figure 1) and mobilization of intracellular calcium was measured online (FLIPR, Molecular Devices). The EC50 and IC50 values were determined using 8-point concentration-response curve using non-linear regression and a four-parameter logistic model (Prism 4.03 software, GraphPad Software Inc).

[1] = system: DRG neurons from CCI rats; test: Whole-cell patch clamp, evoked action potential firing in DRG neurons from CCI rats; format: cell-based, rat
Method: To assess whether DRG neurons from rats with chronic constriction injury (CCI) were also CCL2-sensitive, we performed whole-cell patch clamp recordings to evaluate the effect of the chemokine on cell excitability. A suprathreshold (500 ms) depolarizing current step was used to evoke a stable baseline of action potentials (Figure 2A) in the absence or presence of locally applied CCL2 (1min) onto the recorded cell.
Ganglia from L4 to L6 dorsal roots were harvested from CCI animals, 4 to 19 days post-surgery. The tissue was enzymatically digested at 37°C for 90 min with collagenase-A (2 mg/mL) and papain (1 mg/mL) in DMEM. […]
DRG cells maintained for 1-3 days in culture were transferred to a recording chamber fixed to the stage of an inverted microscope (Olympus) and constantly perfused (0.5 mL/min) with Dulbecco's phosphate buffered saline (PBS), a standard extracellular bathing solution containing (in mM): 137 NaCl; 8.1 Na2HPO4•7H2O; 2.68 KCl; 1.47 KH2PO4; 0.9 CaCl2; 0.5 MgCl2•6H2O at pH 7 and 275 to 290 mOsm. […] Signals were filtered at 1 kHz, digitized at 10 kHz (Digidata, Molecular Devices) and captured and analyzed off-line (Pclamp9 software, Molecular Devices). Action potentials were recorded with borosilicate glass patch pipettes (2-6 MΩ) filled with solution containing (in mM): 110 K-gluconate, 20 KCl, 10 EGTA, 8 NaCl, 10 HEPES, 1 MgCl2 and 4 Mg-ATP at pH 7.3. […]

[2] = system: DRG cells harvested from naive rats; test: Calcium imaging of DRG cells harvested from naive rats; format: cell-based, rat; conditions: data not shown
Excerpt: An increased number of action potentials in DRG neurons following CCR2 activation is an intriguing observation since CCR2 is a pertussis toxin (PTX)-sensitive GPCR coupled to inhibitory Gi and/or […]. Additionally, CCR2 activation evokes excitatory Ca^2+ rises in DRG cells but the underlying mechanism is still poorly understood. To gain further insight into CCR2-mediated Ca^2+ mobilization, we next evaluated the sensitivity of both neuronal and non-neuronal cell types in the DRG by recording changes in intracellular calcium evoked by CCL2. […] In mixed-cell cultures from CCI rats, CCL2 evoked an intracellular calcium rise in both neuronal and non-neuronal DRG cells (Figure 3A-C). Non-neuronal cells, satellite cells or microglia, were easily distinguished from neurons by their size, morphology and absence of dendritic processes (Figure 3A).
Cells and spinal cord slices were loaded with Fluo4-AM (4 μM, 30 min) in an oxygenated chamber (5% CO2/95% O2). DRG cells and spinal cord slices were washed in PBS and ACSF respectively and placed in a chamber mounted on the stage of a fluorescent microscope (Olympus). […] For each time-lapse image, the fluorescence intensity (F) was averaged over the soma area. Changes in fluorescence (ΔF) were measured as relative changes from baseline fluorescence (F0) and expressed as: […]

[3] = system: neuronal cells in spinal cord slices from CCI rats; test: Calcium imaging of neurons in spinal cord slices from CCI rats; format: cell-based, rat; conditions: bath application of 50 nM CCL2; n = 5
Method: (§1) To evaluate this we used spinal cord slices from CCI rats and evaluated if neuronal and non-neuronal cell types were sensitive to CCL2. For these recordings, calcium imaging acquisition was focused on lamina I of the dorsal horn. […] In this region, non-neuronal cells included astrocytes, microglia and other types of glial cells.
(§2) Spinal cord slices from L4 to L6 region were prepared from CCI animals, 4 to 19 days post-surgery, following guidelines by Wan and colleagues. In order to prevent excess bleeding, 20 uL of Xylocaine was injected intramuscularly at several sites on both sides of the spinal cord. Under deep anaesthesia a laminectomy (T11 to L5) was performed. Once exposed, the spinal cord was isolated and submerged in oxygenated ice-cold solution containing (in mM): 250 sucrose, 5 KCl, 2 MgSO4, 1.25 NaH2PO4, 26 NaHCO3 and 10 glucose.

[4] = system: non-neuronal cells in spinal cord slices from CCI rats; test: Calcium imaging of non-neuronal cells in spinal cord slices from CCI rats; format: cell-based, rat; conditions: bath application of 50 nM CCL2; n = 4
Method: as §1, §2

[5] = system: DRG neurons from CCI rats; test: Calcium imaging of cultured DRG neurons from CCI rats; format: cell-based, rat; conditions: 1 μM, before (5 min), during and after 100 nM CCL2; n = 6 cells
Method: Since rCCL2 can activate both CCR2 and CCR5 [25] we used AZ889 to test if a selective CCR2 antagonist can prevent CCL2-induced calcium signalling in native tissue.
Ganglia from L4 to L6 dorsal roots were harvested from CCI animals, 4 to 19 days post-surgery. The tissue was enzymatically digested at 37°C for 90 min with collagenase-A (2 mg/mL) and papain (1 mg/mL) in DMEM. Cells were plated on Poly-D-Lysine coated coverslips and maintained in F12 supplemented with 10% heat inactivated horse serum, 2 mM glutamine-penicillin-streptomycin, and 2 ng/ml NGF and GDNF for 1-3 days in a humidified chamber (5% CO2/95% O2).

CCI rats = test: Thermal (heat) hyperalgesia (paw withdrawal latency) in CCI neuropathic rats; format: in vivo, rat; conditions: p.o., tested 1 h after dosing
Excerpt: Chronic nerve constriction injury (CCI) was induced as described previously [38] in male Sprague-Dawley rats weighing 125-150 g at the time of surgery. Briefly, under isoflurane anaesthesia, a small incision was made 0.5 cm below the pelvis, and the biceps femoris and the gluteus superficialis (left side) were separated. The sciatic nerve was exposed, isolated, and four loose ligatures (4-0 chromic gut) with 1 mm spacing were placed around it. The nerve was placed back in its natural position and the incision sealed with tissue adhesive (VetbondTM). The animals were allowed to recover for 7-10 days before conducting any behavioural testing. Animals that were not gaining weight or were showing clinical signs of distress (e.g. paralysis, self-mutilation, extensive alopecia) were not included in this study.
Animals were brought to the laboratory 24 h prior to behavioural testing for acclimatization. […] Paw withdrawal latencies were calculated as the mean of two trials conducted with 5 min intervals between measures.
CCI rats and their corresponding naïve controls were used throughout this study. […] In order to assess behavioural pathology, baseline hyperalgesia was determined 1-2 days before pharmacological testing. […] The percentage of anti-hyperalgesia for each rat was calculated according to the following equation: % anti-hyperalgesia = [(value-vehicle)/(naïve-vehicle)]*100.

rats = test: Side effects during behavioural studies (locomotor activity assay, muscle tone, overt signs); format: in vivo, rat; conditions: highest dose (pregabalin 100 mg/kg p.o.); data not shown
[6] = Additional file 1 Figure S1, average of 3 independent experiments

Compound: rCCL2: rat CC chemokine ligand 2 (monocyte chemoattractant protein-1), CCR2 agonist, purchased from R&D Systems
- EC50 (rat CCR2 receptor; [6]): 800 pM
- increase in evoked firing compared to vehicle ([1]; CCL2 10 nM, local application 1 min, n = 3): 29 ± 9%
- increase in evoked firing (facilitated neuronal firing) ([1]; rCCL2 100 nM, n = 6): 46 ± 13%
- calcium response in DRG cells from naive rats [2]: did not evoke any response
- mean calcium rise peak in neurons [3]: 142.5 ± 87.8%
- calcium response in non-neuronal cells [4]: 57.8 ± 42.3%

Compound: COc1ccc2c(c1)CC[C@@H]1[C@@H]2CC[C@]2(C)[C@@H](NCCCCCCN3C(=O)C=CC3=O)CC[C@@H]12 [U73122]
- effect on CCL2-evoked calcium mobilization in DRG neurons [5]: significant block of the calcium rise peak; also recorded: significantly blocked

Compound: CC(C)C[C@H](CN)CC(=O)O [Pregabalin]
- potency in reducing heat hyperalgesia, fold lower than AZ889 (CCI rats): 10 fold
- muscle tone (rats): clear decrease in muscle tone

Compound: mCCL2: mouse CC chemokine ligand 2 (monocyte chemoattractant protein-1), CCR2 agonist, purchased from R&D Systems
- EC50 (rat CCR2 receptor; [6]): 500 pM
- EC50 (rat CCR2 receptor; Figure 1A): 1000 pM
